Test results reported in US10441564B2, “Fructose analogs and their combinations as anti-cancer agents” (priority 2016, dated 2019).
Entries after “also recorded” stand apart in the source; their conditions may differ.

How the values were obtained:
[1] = test system: HL-60; test: proliferation of AML cells HL-60; format: cell-based
Method: (§1) In cell culture conditions with 6 mM fructose or 6 mM fructose+0.75 mM glucose, 2,5-AM could inhibit the proliferation of four AML cells, including U937, OCI-AML3, HL-60 and K562 cells.

[2] = test system: AML mice (murine leukemic cells with AML1-ETO and mutated C-KIT); test: AML model mice; format: in vivo, BALB/c female mice
Method: AML mice were generated using a previously reported procedure (Wang et al., 2011) with minor modifications. About 1×10^5 GFP-positive murine leukemic cells (splenic cells) with AML1-ETO and mutated C-KIT were injected into the tail vein of each sublethally irradiated (3.5 Gy), 8 week old BALB/c female mice. On day 5 after inoculation of AML cells, 2,5-AM was injected intraperitoneally at a dose of 150 mg/kg/day for continuous administration to mice. Control group AML mice were given saline injection according to the same dose and method.
chemotherapeutic drug cytarabine on the treatment of AML model mice (Ara-C) was administered intraperitoneally at a dose of 25 mg/kg/day on the third day in the AML model mice (see example 3) for 3 days after AML cell inoculation. At the same time, mice were intraperitoneally injected with 2,5 AM at a dose of 150 mg/kg/day on day 5 after AML cell inoculation, until mice were dead. (2) Ara-C alone group: In the AML model mice of Example 3, Ara-C was injected intraperitoneally at a dose of 25 mg/kg/day on the third day after AML cell inoculation for 3 days.

[3] = test system: K562; test: proliferation of AML cells K562; format: cell-based
[4] = test system: OCI-AML3; test: proliferation of AML cells OCI-AML3; format: cell-based
Method: as §1

[5] = test system: U937; test: proliferation of AML cells U937; format: cell-based
Method: as §1

[6] = test system: AML cells; test: fructose utilization in AML cells in vitro; format: cell-based; settings: in vitro cell experiments
From the text: Enhanced fructose metabolism mediated by GLUTS exacerbates the malignant phenotype of AML cells, including increased cell proliferation, enhanced colony formation, and increased mobility and infiltration of AML cells (FIG. 3A-3D). […] Additionally 2,5-AM can kill AML cells in concert with conventional chemotherapeutic agents (FIG. 7A-7G).

[7] = test system: U937-SLC2A5 cells (overexpressing the fructose transporter SLC2A5); test: colony formation of U937-SLC2A5 cells; format: cell-based; settings: 6 mM fructose or 6 mM fructose+0.75 mM glucose
[8] = test system: HCT-116; test: malignant proliferation of colorectal cancer cells HCT-116; format: cell-based; settings: 6 mM fructose culture
[9] = test system: PANC-1; test: fructose-induced proliferation of pancreatic cancer cells PANC-1; format: cell-based; settings: 6 mM fructose culture
[10] = test system: U937-SLC2A5 cells (overexpressing the fructose transporter SLC2A5); test: cell migration of U937-SLC2A5 cells; format: cell-based; settings: 6 mM fructose or 6 mM fructose+0.75 mM glucose
[11] = test system: HCT-15; test: malignant proliferation of colorectal cancer cells HCT-15; format: cell-based; settings: 6 mM fructose culture
[12] = test system: BxPC-3; test: fructose-induced proliferation of pancreatic cancer cells BxPC-3; format: cell-based; settings: 6 mM fructose culture
[13] = test system: U937-SLC2A5 cells (overexpressing the fructose transporter SLC2A5); test: malignant proliferation of AML cells U937-SLC2A5; format: cell-based; settings: 6 mM fructose or 6 mM fructose+0.75 mM glucose
[14] = test system: CFPAC-1; test: fructose-induced proliferation of pancreatic cancer cells CFPAC-1; format: cell-based; settings: 6 mM fructose culture
[15] = test system: cancer cells; test: fructose and glucose utilization by cancer cells; format: cell-based
From the text: The present inventors have discovered, for the first time, the important role of GLUTS-mediated fructose metabolism in the malignant progression of cancer, and the close relationship with the prognosis of the cancer patients, through extensive and in-depth research and clinical data analysis. […] Furthermore, 2,5-AM may reverse the malignant phenotypes of AML cells by synergizing with conventional chemotherapeutic cytarabine or glucose analogue 2-deoxy-glucose (2-DG). […] Moreover, 2,5-AM and cytarabine in AML mice also have a significant synergistic effect. Through the above work, the present inventors have determined the administration of 2,5-AM to AML, pancreatic cancer, and colorectal cancer, including the dosage, the route of administration and the duration of administration; and the combined use of 2,5-AM and conventional chemotherapeutic agents or 2-DG methods for cancer treatment.

[16] = 6 mM fructose or 6 mM fructose+0.75 mM glucose
[17] = 150 mg/kg/day intraperitoneally from day 5, compared with saline control group

OC[C@H]1O[C@H](CO)[C@@H](O)[C@@H]1O [2,5-AM, 2,5-anhydro-D-mannitol]
malignant proliferation of HL-60 [1, 16]: significantly inhibited; also recorded: could inhibit | cell proliferation of HL-60 ([1]; 6 mM glucose): almost unaffected | bone marrow leukemia cells [2, 17]: significantly inhibited | hemoglobin [2, 17]: significantly increased | overall survival of mice [2, 17]: significantly prolonged | peripheral blood leukemia cells [2, 17]: significantly inhibited | peripheral blood red blood cell count [2, 17]: significantly increased | peripheral white blood cells [2, 17]: significantly inhibited | platelet count [2, 17]: significantly increased | spleen enlargement [2, 17]: significantly relieved | fructose utilization by AML cells in vivo ([2]; mouse in vivo experiments): significantly inhibited | malignant proliferation of K562 [3, 16]: significantly inhibited; also recorded: could inhibit | cell proliferation of K562 ([3]; 6 mM glucose): almost unaffected | malignant proliferation of OCI-AML3 [4, 16]: significantly inhibited; also recorded: could inhibit | cell proliferation of OCI-AML3 ([4]; 6 mM glucose): almost unaffected | malignant proliferation of U937 [5, 16]: significantly inhibited; also recorded: could inhibit | cell proliferation of U937 ([5]; 6 mM glucose): almost unaffected | fructose utilization in AML cells [6]: blocked | colony formation [7]: significantly inhibited | malignant proliferation of HCT-116 [8]: significantly inhibited | proliferation of PANC-1 [9]: significantly inhibited | cell migration [10]: significantly inhibited | malignant proliferation of HCT-15 [11]: significantly inhibited | proliferation of BxPC-3 [12]: significantly inhibited | malignant proliferation of AML cells U937-SLC2A5 [13]: significantly inhibited | proliferation of CFPAC-1 [14]: significantly inhibited | fructose utilization by cancer cells [15]: competitively inhibits | glucose utilization [15]: little effect
